Here are results for one compound from paper doi:10.1101/2022.06.29.498187v1 (bioRxiv, 2022).

The target in experiment [1] is T1, human GHSR1a (Homo sapiens, UniProt Q92847). Briefly: NanoBiT-based homogenous binding assay. The following applies: ghrelin-SmBiT and LEAP2-SmBiT tracers.
Experiment [2] deals with T1, human GHSR1a. Nature of the experiment: Receptor activation assay, CRE-controlled NanoLuc reporter. The experiment is classed as cell-based.

T1 sequence (Q92847 whole entry): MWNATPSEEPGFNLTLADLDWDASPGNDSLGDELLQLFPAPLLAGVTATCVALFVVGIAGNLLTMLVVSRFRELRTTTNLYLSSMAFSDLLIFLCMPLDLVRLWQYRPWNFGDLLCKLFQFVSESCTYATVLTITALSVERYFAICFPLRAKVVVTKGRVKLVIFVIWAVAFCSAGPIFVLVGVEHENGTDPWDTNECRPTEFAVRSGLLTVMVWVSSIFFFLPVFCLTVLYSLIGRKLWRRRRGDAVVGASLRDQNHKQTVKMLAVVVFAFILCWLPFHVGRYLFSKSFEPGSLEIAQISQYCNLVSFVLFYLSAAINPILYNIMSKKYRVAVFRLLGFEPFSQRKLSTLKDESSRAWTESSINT

For the compound `CCCCCSC[C@H](NC(=O)[C@H](CO)NC(=O)CN)C(=O)N[C@@H](Cc1ccccc1)C(=O)N[C@@H](CC(C)C)C(=O)N[C@@H](CO)C(=O)N1CCC[C@H]1C(=O)N[C@@H](CCC(=O)O)C(=O)N[C@@H](Cc1c[nH]cn1)C(=O)N[C@@H](CCC(N)=O)C(=O)N[C@@H](CCCNC(=N)N)C(=O)N[C@H](C(=O)N[C@@H](CCC(N)=O)C(=O)N[C@@H](CCC(N)=O)C(=O)N[C@@H](CCCNC(=N)N)C(=O)N[C@@H](CCCCN)C(=O)N[C@@H](CCC(=O)O)C(=O)N[C@@H](CO)C(=O)N[C@@H](CCCCN)C(=O)N[C@@H](CCCCN)C(=O)N1CCC[C@H]1C(=O)N1CCC[C@H]1C(=O)N[C@@H](C)C(=O)N[C@@H](CCCCN)C(=O)N[C@@H](CC(C)C)C(=O)N[C@@H](CCC(N)=O)C(=O)N1CCC[C@H]1C(=O)N[C@@H](CCCNC(=N)N)C(=O)O)C(C)C` [analog 1], the “fold lower receptor binding activity compared to native human ghrelin” value in experiment [1] is approximately 15 fold. Further, the “fold lower receptor activation potency compared to native human ghrelin” value in experiment [2] is recorded as approximately 7 fold.
